Data as given in patent publication US20170121683A1, “ARYL HYDROCARBON RECEPTOR DISRUPTION AND ENHANCEMENT” (priority 2015, published 2017).

Test system: hESC-derived hematopoietic cells
Assay: cNK, NKP and ILC3 phenotyping by flow cytometry
Assay type: cell-based, human
Text: FIG. 15A. Gating scheme for identifying cNK (CD94^−CD117^+), NK progenitor cells (NKP, CD94^+CD117^− and CD94^+CD117^−LFA1^+), and ILC (CD94^−CD117^+LFA1^−) phenotypes. FIG. 15B. Representative flow cytometry profile of non-adherent hematopoietic cells differentiated from hESCs in the presence of DMSO, SR-1, or TCDD at Day 11+28. FIG. 15C. cNK, NKP, and NKP/ILC subpopulations from Day 11+28 DMSO, SR-1, and TCDD differentiated hESCs assessed for CD56 and LFA (CD11a/CD18) surface antigen expression. Representative flow cytometry plots are shown, n=3. FIG. 15D. Total percentage of cNK, NKP, and NKP/ILCs present in the non-adherent fraction of differentiating hESCs in the presence of DMSO, SR-1, or TCDD at Day 11+28. n=3, error bars represent SEM, *p<0.05, **p<0.01, ***p<0.001 as compared to DMSO treated controls and assessed by two-way ANOVA+Tukey-Kramer multiple comparisons post-hoc test. FIG. 15E. CD94^−CD117^+ subpopulations were further quantified for expression of LFA^+ (NKP) and LFA^− (ILC) by flow cytometry. n=3, error bars represent SEM, *p<0.05, **p<0.01 as compared to DMSO treated controls and assessed by two-way ANOVA+Tukey-Kramer multiple comparisons post-hoc test.
Spin-EBs were generated as described above (see also Knorr et al. Stem Cells Dev. 2013; 22(13):1861-9; Ni et al. Embryonic Stem Cell Immunobiol. Methods Protoc. Methods Mol. Biol. 2013; 1029:33-41; Hermanson et al. Stem Cells. 2016; 34(1):93-101). Following 11 days of mesoderm conditioning (Day 11), spin-EBs were collected and analyzed by flow cytometry to assess hematopoietic progenitor cell potential (see flow cytometry methods for antibodies used) (FIG. 4A). Spin-EBs yielding >30% CD34^+CD45^+ cells were transferred onto 24-well plates coated with irradiated OP9-DL1 cells (as described in Martin et al. Blood. 2008; 112(7):2730-7; La Motte-Mohs et al. Blood. 2005; 105(4):1431-9) (now defined as Day 11+0). EBs and OP9-DL1 were co-cultured in NK differentiation media (NKDM) supplemented initially with SCF, IL-15, IL-7, Flt3-L (all R&D Systems), and IL-3 (PeproTech) for one week; DMSO, SR-1, or TCDD were also added at Day 11+0. Every week, a one-half media change with NKDM supplemented with SCF, IL-15, IL-7, Flt3-L, and drugs was performed. hESCs were differentiated for four additional weeks (Day 11+28) and non-adherent cells were harvested for analysis.
The following additional antibodies were used (all anti-human): LFA-1 (CD11a/CD18)-APC-R700 (BD Biosciences), CD31-APC (eBioscience), CD33-APC (BD Biosciences), CD34-PECy7 (BD Biosciences), CD34-APC (BD Biosciences), CD41a-APC (BD Biosciences), CD43-APC (BD Biosciences), CD45-APC (BD Biosciences), CD56-PECy7 (BD Biosciences), CD56-BV421 (BD Biosciences), CD94-PerCP-Cy5.5 (BD Biosciences), CD117-PECy7 (BD Biosciences), CD117-APC (eBiosciences), CD144-APC (eBioscience). Samples were analyzed on either an LSRFortessa or LSRII flow cytometer (BD Biosciences). Gating was set relative to isotype controls of identical fluorophores. Data from flow cytometry was analyzed using FlowJo software (Treestar, Ashland, Oreg.).
To assess the effects of AHR modification on NK cell and ILC specification, non-adherent hematopoietic cells derived from hESCs on Day 11+28 cultured in NKDM supplemented with DMSO, SR-1, or TCDD were harvested as single-cell suspensions. Cells were washed with DPBS, filtered, and stained with the following antibodies (all anti-human): CD56-BV421, CD94-PerCP-Cy5.5, CD117-PECy7, and LFA-1 (CD11a/CD18)-APC-R700 in sterile FACS Buffer (DPBS+2% FBS and 0.1% sodium azide) for 30 minutes at 4° C. Cells were washed with FACS buffer and cells were counterstained with Sytox Blue (ThermoFisher Scientific) immediately prior to sorting. Live NKP, cNK, and ILC3 populations were sorted directly into FACS tubes containing NKDM basal media using a FACSAria II (BD Biosciences) cell sorter. Cells were immediately centrifuged, washed once with PBS, and processed from total RNA isolation as described above.

[1] = Day 11+28, non-adherent fraction, n=3

| SMILES | change in CD94−CD117+ population compared to DMSO (Day 11+28) | NKP (CD94+CD117+) cells, total percentage [1] | cNK cells (CD94+CD117−), total percentage [1] | shift of NKP population compared to DMSO (Day 11+28) | percentage of CD94−CD117+ cells absent for LFA1 (ILC3) (Day 11+28, n=3) | CD94−CD117+ cells, total percentage [1] |
| --- | --- | --- | --- | --- | --- | --- |
| CC(C)n1cnc2c(NCCc3ccc(O)cc3)nc(-c3csc4ccccc34)nc21 [SR-1, StemReginin-1] | significant reduction | 16.13±0.58% | 37.0±2.92% |  |  |  |
| Clc1cc2c(cc1Cl)Oc1cc(Cl)c(Cl)cc1O2 [TCDD, 2,3,7,8-tetrachlorodibenzo-p-dioxin] |  |  |  | significantly shifted hESC-derived hematopoietic cells away from NKPs | 69.4±4.57% | 28.5±4.42% |
